# From patent publication US20250009742A1 (priority 2021, published 2025)
# Tested on: intracellular HBV DNA
# Assay: Real-time PCR for intracellular HBV DNA in HepAD38 cells
# Type: cell-based
# Conditions: 65 hours treatment
# Protocol: HepAD38 cells were cultured in DMEM medium (Welgene) supplemented with 200 unit/mL penicillin, 200 μg/mL streptomycin, and 10% FBS. During maintenance and passage, the cells were cultured together with 0.4 μg/mL tetracycline. Two days before the treatment with compounds for inducing HBV replication was started, the medium was replaced with a tetracycline-free complete growth medium. […]
# HepAD38 cells were treated with a compound for 65 hours and then recovered, and intracellular HBV DNA was extracted therefrom according to the protocol in the DNeasy Blood & Tissue Kit (Qiagen). The primers and probes used to quantify HBV DNA were 5′-[…]-3′, 5′-[…]-3′, and 5′-/56-FAM/TGT CCT GGT/ZEN/TAT CGC TGG ATG TGT CT/3IABkFQ/-3′. The HBV DNA was amplified by real-time PCR assay using LightCycler 480 (Roche) (J. Virol., 2018, 92(16):e00339-18). All of the processes were confirmed in duplicate.
row,SMILES,IC50 [nM]
1,"COc1ncc(N(Cc2cc(C(F)F)[nH]n2)C(=O)Nc2ccc(F)c(C(F)F)n2)cn1 [Example 210, 1-((5-(difluoromethyl)-1H-pyrazol-3-yl)methyl)-3-(6-(difluoromethyl)-5-fluoropyridin-2-yl)-1-(2-methoxypyrimidin-5-yl)urea]",130

# Same assay, conditions: Hepatitis B virus, HePAD38, 65 h, 65 hours treatment
row,SMILES,IC50 [nM]
1,"COc1ncc(N(Cc2cc(C#N)[nH]n2)C(=O)Nc2ccc(F)c(C(F)F)c2)cn1 [Example 209, 1-((5-cyano-1H-pyrazol-3-yl)methyl)-3-(3-(difluoromethyl)-4-fluorophenyl)-1-(2-methoxypyrimidin-5-yl)urea]",16
2,"COc1ncc(N(Cc2cc(C(F)(F)F)[nH]n2)C(=O)Nc2ccc(Cl)c(C#N)n2)cn1 [Example 8, 3-(5-chloro-6-cyanopyridin-2-yl)-1-(2-methoxypyrimidin-5-yl)-1-((5-(trifluoromethyl)-1H-pyrazol-3-yl)methyl)urea]",> 1100
3,"COc1ncc(N(Cc2cc(C(F)(F)F)[nH]n2)C(=O)Nc2ccc(C#N)c(C#N)c2)cn1 [Example 167, 3-(3,4-dicyanophenyl)-1-(2-methoxypyrimidin-5-yl)-1-((5-(trifluoromethyl)-1H-pyrazol-3-yl)methyl)urea]",190
4,"COc1ncc(N(Cc2cc(C(F)(F)F)[nH]n2)C(=O)Nc2cncnc2)cn1 [Example 2, 1-(2-methoxypyrimidin-5-yl)-3-(pyrimidin-5-yl)-1-((5-(trifluoromethyl)-1H-pyrazol-3-yl)methyl)urea]",> 1100
5,"COc1ccc(N(Cc2n[nH]c(C(F)(F)F)c2CCO)C(=O)Nc2ccc(F)c(Cl)c2)cn1 [Example 86, 3-(3-chloro-4-fluorophenyl)-1-((4-(2-hydroxyethyl)-5-(trifluoromethyl)-1H-pyrazol-3-yl)methyl)-1-(6-methoxypyridin-3-yl)urea]",16
6,"COc1ncc(N(Cc2cc(C(F)(F)F)[nH]n2)C(=O)NC23CC(F)(C2)C3)cn1 [Example 185, 3-(3-fluorobicyclo[1.1.1]pentan-1-yl)-1-(2-methoxypyrimidin-5-yl)-1-((5-(trifluoromethyl)-1H-pyrazol-3-yl)methyl)urea]",> 1100
7,"COc1ncc(N(Cc2cc(C(F)(F)F)[nH]n2)C(=O)Nc2ccc(F)c(Cl)n2)cn1 [Example 106, 3-(6-chloro-5-fluoropyridin-2-yl)-1-(2-methoxypyrimidin-5-yl)-1-((5-(trifluoromethyl)-1H-pyrazol-3-yl)methyl)urea]",120
8,"COc1ncc(N(Cc2cc(C(F)F)[nH]n2)C(=O)Nc2ccc(F)c(Cl)c2)cn1 [Example 84, 3-(3-chloro-4-fluorophenyl)-1-((5-(difluoromethyl)-1H-pyrazol-3-yl)methyl)-1-(2-methoxypyrimidin-5-yl)urea]",17
9,"COc1ncc(N(Cc2cc(C(F)(F)F)[nH]n2)C(=O)Nc2cccc(Cl)n2)cn1 [Example 5, 3-(6-chloropyridin-2-yl)-1-(2-methoxypyrimidin-5-yl)-1-((5-(trifluoromethyl)-1H-pyrazol-3-yl)methyl)urea]",380
10,"COc1ncc(N(Cc2n[nH]c(C(F)(F)F)c2CC(C)(C)O)C(=O)Nc2ccc(F)c(Cl)c2)cn1 [Example 101, 3-(3-chloro-4-fluorophenyl)-1-((4-(2-hydroxy-2-methylpropyl)-5-(trifluoromethyl)-1H-pyrazol-3-yl)methyl)-1-(2-methoxypyrimidin-5-yl)urea]",> 1100
11,"COc1ncc(N(Cc2cc(C(F)(F)F)[nH]n2)C(=O)Nc2cnc(SC)nc2)cn1 [Example 218, 1-(2-methoxypyrimidin-5-yl)-3-(2-(methylthio)pyrimidin-5-yl)-1-((5-(trifluoromethyl)-1H-pyrazol-3-yl)methyl)urea]",> 1100
12,"COc1ncc(N(Cc2n[nH]c(C(F)F)c2CC(C)(C)O)C(=O)Nc2ccc(F)c(C(F)F)c2)cn1 [Example 208, 1-((5-(difluoromethyl)-4-(2-hydroxy-2-methylpropyl)-1H-pyrazol-3-yl)methyl)-3-(3-(difluoromethyl)-4-fluorophenyl)-1-(2-methoxypyrimidin-5-yl)urea]",> 1100
13,"COc1ncc(N(Cc2cc(C(F)(F)F)[nH]n2)C(=O)Nc2nc(F)ccc2F)cn1 [Example 169, 3-(3,6-difluoropyridin-2-yl)-1-(2-methoxypyrimidin-5-yl)-1-((5-(trifluoromethyl)-1H-pyrazol-3-yl)methyl)urea]",> 1100
14,"COc1ncc(N(Cc2cc(C(F)(F)F)[nH]n2)C(=O)Nc2cc(F)c(F)c(Cl)c2)cn1 [Example 11, 3-(3-chloro-4,5-difluorophenyl)-1-(2-methoxypyrimidin-5-yl)-1-((5-(trifluoromethyl)-1H-pyrazol-3-yl)methyl)urea]",10
15,"COc1ccc(N(Cc2n[nH]c(C(F)F)c2OC)C(=O)Nc2ccc(F)c(Cl)c2)cn1 [Example 100, 3-(3-chloro-4-fluorophenyl)-1-((5-(difluoromethyl)-4-methoxy-1H-pyrazol-3-yl)methyl)-1-(6-methoxypyridin-3-yl)urea]",36
16,"COc1ncc(N(Cc2cc(C(F)F)[nH]n2)C(=O)Nc2cc(F)c(F)c(C#N)c2)cn1 [Example 150, 3-(3-cyano-4,5-difluorophenyl)-1-((5-(difluoromethyl)-1H-pyrazol-3-yl)methyl)-1-(2-methoxypyrimidin-5-yl)urea]",> 1100
17,"COc1ncc(N(Cc2cc(C(F)(F)F)[nH]n2)C(=O)Nc2cc(C)c(F)c(Cl)c2)cn1 [Example 140, 3-(3-chloro-4-fluoro-5-methylphenyl)-1-(2-methoxypyrimidin-5-yl)-1-((5-(trifluoromethyl)-1H-pyrazol-3-yl)methyl)urea]",37
18,"COc1ncc(N(Cc2cc(C(F)F)[nH]n2)C(=O)Nc2cccc(C#N)c2)cn1 [Example 147, 3-(3-cyanophenyl)-1-((5-(difluoromethyl)-1H-pyrazol-3-yl)methyl)-1-(2-methoxypyrimidin-5-yl)urea]",80
19,"COc1ncc(N(Cc2cc(C(F)(F)F)[nH]n2)C(=O)Nc2nc(F)c(F)cc2F)cn1 [Example 221, 1-(2-methoxypyrimidin-5-yl)-1-((5-(trifluoromethyl)-1H-pyrazol-3-yl)methyl)-3-(3,5,6-trifluoropyridin-2-yl)urea]",> 1100
20,"COc1ncc(N(Cc2cc(C(F)(F)F)[nH]n2)C(=O)Nc2ccnc(C#N)c2F)cn1 [Example 158, 3-(2-cyano-3-fluoropyridin-4-yl)-1-(2-methoxypyrimidin-5-yl)-1-((5-(trifluoromethyl)-1H-pyrazol-3-yl)methyl)urea]",230
21,"COc1ncc(N(Cc2cc(C(F)F)[nH]n2)C(=O)Nc2cc(F)c(F)c(Cl)c2)cn1 [Example 12, 3-(3-chloro-4,5-difluorophenyl)-1-((5-(difluoromethyl)-1H-pyrazol-3-yl)methyl)-1-(2-methoxypyrimidin-5-yl)urea]",45
22,"COc1ncc(N(Cc2cc(C(F)(F)F)[nH]n2)C(=O)Nc2cccc(F)n2)cn1 [Example 183, 3-(6-fluoropyridin-2-yl)-1-(2-methoxypyrimidin-5-yl)-1-((5-(trifluoromethyl)-1H-pyrazol-3-yl)methyl)urea]",> 1100
23,"COc1ncc(NC(=O)N(Cc2cc(C(F)(F)F)[nH]n2)c2cnc(OC)nc2)cn1 [Example 216, 1,3-bis(2-methoxypyrimidin-5-yl)-1-((5-(trifluoromethyl)-1H-pyrazol-3-yl)methyl)urea]",> 1100
24,"COc1ncc(N(Cc2cc(C(F)(F)F)[nH]n2)C(=O)Nc2cc(C#N)c(F)cn2)cn1 [Example 161, 3-(4-cyano-5-fluoropyridin-2-yl)-1-(2-methoxypyrimidin-5-yl)-1-((5-(trifluoromethyl)-1H-pyrazol-3-yl)methyl)urea]",74
25,"COc1ncc(N(Cc2cc(C(F)(F)F)[nH]n2)C(=O)Nc2ccnc(Br)c2F)cn1 [Example 4, 3-(2-bromo-3-fluoropyridin-4-yl)-1-(2-methoxypyrimidin-5-yl)-1-((5-(trifluoromethyl)-1H-pyrazol-3-yl)methyl)urea]",21
26,"COc1ccc(N(Cc2n[nH]c(C(F)(F)F)c2CC2OC(C)(C)C(C)(C)O2)C(=O)Nc2ccc(F)c(Cl)c2)cn1 [Example 87, 3-(3-chloro-4-fluorophenyl)-1-(6-methoxypyridin-3-yl)-1-((4-((4,4,5,5-tetramethyl-1,3-dioxolan-2-yl)methyl)-5-(trifluoromethyl)-1H-pyrazol-3-yl)methyl)urea]",34
27,"COc1ncc(N(Cc2cc(C(F)(F)F)[nH]n2)C(=O)NC23CC(C2)C3)cn1 [Example 1, 3-(bicyclo[1.1.1]pentan-1-yl)-1-(2-methoxypyrimidin-5-yl)-1-((5-(trifluoromethyl)-1H-pyrazol-3-yl)methyl)urea]",> 1100
28,"COc1ncc(N(Cc2cc(C(F)F)[nH]n2)C(=O)Nc2cc(C)c(F)c(Cl)c2)cn1 [Example 139, 3-(3-chloro-4-fluoro-5-methylphenyl)-1-((5-(difluoromethyl)-1H-pyrazol-3-yl)methyl)-1-(2-methoxypyrimidin-5-yl)urea]",40
29,"COc1ncc(N(Cc2cc(C(F)(F)F)[nH]n2)C(=O)NC23CC(C)(C2)C3)cn1 [Example 217, 1-(2-methoxypyrimidin-5-yl)-3-(3-methylbicyclo[1.1.1]pentan-1-yl)-1-((5-(trifluoromethyl)-1H-pyrazol-3-yl)methyl)urea]",> 1100
30,"COc1ncc(N(Cc2cc(C(F)(F)F)[nH]n2)C(=O)Nc2ccc(F)c(C#N)n2)cn1 [Example 160, 3-(6-cyano-5-fluoropyridin-2-yl)-1-(2-methoxypyrimidin-5-yl)-1-((5-(trifluoromethyl)-1H-pyrazol-3-yl)methyl)urea]",430
